Key:
Sprague-Dawley rats = test: Heat sensitivity (Hargreaves method) after reserpine single administration; type: in vivo, rat; settings: reserpine 3 mg/kg single s.c.
Method: Measurement of the heat sensitivity was carried out by the method of Hargreaves et al. (Hargreaves et al., Pain, 32, 77-88, 1988). A transparent measuring box was put on a glass plate supported with platforms and a rat was put therein and acclimatized. A mobile infrared heat source was arranged under the glass plate and focused on the plantar surface of the right hind paw of the rat. A latency time required for the rat to show a withdrawal reaction of right hind leg from the heat source was measured as a withdrawal latency time and used as the index of heat sensitivity. According to this measuring system, shorter withdrawal latency time represents acceleration of the skin heat sensitivity.
Influences of the reserpine single administration upon the muscle pressure pain threshold value, skin pain sensation threshold value, cold sensitivity and heat sensitivity were examined in accordance with the following protocol. A total of 12 male rats were used. The muscle pressure pain threshold value, skin pain sensation threshold value, cold sensitivity and heat sensitivity before the reserpine treatment (base lines) were measured and then they were divided into a solvent (0.5% acetic acid aqueous solution) group and a reserpine (3 mg/kg) group (the number of animals per group was 6). […]
All of the measured values were expressed as average value±standard error. […]

[1] = system: dopamine, norepinephrine, serotonin, DOPAC, MHPG and 5-HIAA in the spinal cord, thalamus and prefrontal cortex; test: Amounts of dopamine, norepinephrine, serotonin, DOPAC, MHPG and 5-HIAA in spinal cord, thalamus and prefrontal cortex after reserpine single administration (HPLC-ECD); type: in vivo, rat; settings: reserpine 3 mg/kg single s.c.
Method: Male Sprague-Dawley rats (7 weeks old, Japan SLC, Hamamatsu, Japan) were used as the animal.
A total of 72 rats were divided into 12 test schedules (collection of samples before the administration, 2, 4, 8 and 24 hours after the administration and 2, 3, 5, 7, 10, 14 and 21 days thereafter) and further divided each of them into a vehicle (0.5% acetic acid aqueous solution) administration group and a reserpine 3 mg/kg administration group, to 3 rats per group. As shown in Example 5, the vehicle or 3 mg/kg of reserpine was administered subcutaneously only once to each rat, and the brain and spinal cord were quickly collected after 2, 4, 8 or 24 hours or 2, 3, 5, 7, 10, 14 or 21 days of the administration. The thalamus and prefrontal cortex were separated from the brain on an ice-cold dish. Regarding the sampling before administration, samples were collected before beginning of the administration of the vehicle or reserpine. The collected samples were quickly frozen and stored at −80° C. until their use in the measurements. On the day of the measurement, tissues of respective samples were subjected to wet weight measurement, homogenized in 0.2 M perchloric acid/0.1 mM EDTA-2Na solution using an ultrasonic homogenizer. After centrifugation at 15,000 g and at 4° C. for 15 minutes, the supernatant was adjusted to pH 3.5 using sodium acetate and filtered using a filter. Amounts of dopamine, norepinephrine, serotonin, DOPAC, MHPG and 5-HIAA in these samples were measured using a high performance liquid chromatography (column: SC-50DS 3.0, 150 mm, Eicom Co., Ltd., Kyoto, Japan, mobile phase composition: 0.1 M sodium acetate buffer, 0.1 M citrate buffer, pH 3.5, 5 mg/l EDTA-2Na, 200 mg/l sodium octane sulfonic acid, 16% methanol) and an electrochemical detector (ECD-300, Eicom Co., Ltd., Kyoto, Japan). The measurement was carried out under conditions of flow rate 0.5 ml/min, applied voltage 750 mV and 25° C. Amounts of dopamine, norepinephrine, serotonin, DOPAC, MHPG and 5-HIAA in the samples were quantified by comparing sample peak areas of respective standards measured on the same day of the sample measurement.
All of the measured values were expressed as average value±standard error in the graphs, and unit of the measured values was set to ng/g tissue wet weight. Statistical difference of the measured values between the reserpine administration group and the vehicle administration group in each test schedule was carried out by the two-way analysis of variance and the Bonferroni method. Probability value (P) of less than 5% was judged as statistically significant (P<0.05 was expressed as * in the graphs).

rats = settings: single intraperitoneal administration of reserpine in rats; Non-patent Reference 13; cited from earlier work
[2] = after 2, 4, 8 and 24 hours and 2, 3, 5, 7, 10, 14 and 21 days

## COC(=O)[C@H]1[C@H]2C[C@@H]3c4[nH]c5cc(OC)ccc5c4CCN3C[C@H]2C[C@@H](OC(=O)c2cc(OC)c(OC)c(OC)c2)[C@@H]1OC [reserpine]
Sprague-Dawley rats
  time after administration at which transient acute-phase acceleration of heat sensitivity recovers: 8 h
Sprague-Dawley rats; 2 and 4 hours and 2 and 5 days after administration
  heat sensitivity: withdrawal latency time: significantly shortened
[1]; after 2, 3, 5, 7, 10 and 14 days
  amount of DOPAC in the prefrontal cortex: significantly reduced
[1]; after 2, 4, 8 and 24 hours
  amount of 5-HIAA in the thalamus: significantly increased
  amount of DOPAC in the spinal cord: significantly increased
[1]; [2]
  amount of dopamine in the spinal cord: significantly reduced
  amount of dopamine in the thalamus: significantly reduced
  amount of norepinephrine in the prefrontal cortex: significantly reduced
  amount of norepinephrine in the spinal cord: significantly reduced
  amount of norepinephrine in the thalamus: significantly reduced
  amount of serotonin in the spinal cord: significantly reduced
[1]; after 2, 4, 8 and 24 hours and 2, 3, 5, 7, 10 and 14 days
  amount of dopamine in the prefrontal cortex: significantly reduced
[1]; after 2, 4, 8 and 24 hours and 2, 3, 5, 7 and 10 days
  amount of serotonin in the prefrontal cortex: significantly reduced
[1]; after 4, 8, 24 hours and 2 days
  amount of 5-HIAA in the spinal cord: significantly increased
[1]; after 8 and 24 hours and 3, 5, 7 and 10 days
  amount of serotonin in the thalamus: significantly reduced
[1]; after 4 hours and 7 days
  amount of MHPG in the prefrontal cortex: significantly reduced
  amount of MHPG in the spinal cord: significantly reduced
[1]; after 8 hours and 2, 3, 5, 7, 10, 14 and 21 days
  amount of 5-HIAA in the prefrontal cortex: significantly reduced
[1]; after 2 days and later
  amount of DOPAC in the spinal cord: did not significantly change
[1]; all time points
  amount of DOPAC in the thalamus: did not significantly change
  amount of MHPG in the thalamus: did not significantly change
[1]; in and after 2 days
  amount of 5-HIAA in the thalamus: no significant difference
[1]; in and after 3 days
  amount of 5-HIAA in the spinal cord: did not significantly change
[1]; within 24 hours after the administration
  amount of DOPAC in the prefrontal cortex: did not significantly change
rats
  sensitivity to thermal stimulation: causes hypersensitivity to thermal stimulation
  time within which hypersensitivity to thermal stimulation disappears: ≤ 24 h

— US8795632B2, “Disease animal model for chronic pain” (Astellas Pharma Inc., priority 2008, dated 2014)
